# Measured values as given in PubChem BioAssay AID366 (MTDP, 2006).
# Active and inactive are the calls of the source. The rule behind the calls is not given here.
# Target: Ribonuclease H1 (Homo sapiens) (UniProt O60930)
# Assay: inhibition of human ribonuclease H1 activity – biochemical, FRET RNA/DNA duplex cleavage, dose response (AID 366);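 note: potency is for inhibitors that lower RNA cleavage and so lower fluorescence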
# Settings: human RNase H1, FRET RNA/DNA duplex cleavage, fluorescence
# Ribonuclease H1 (Homo sapiens), sequence (O60930 whole entry, looked up): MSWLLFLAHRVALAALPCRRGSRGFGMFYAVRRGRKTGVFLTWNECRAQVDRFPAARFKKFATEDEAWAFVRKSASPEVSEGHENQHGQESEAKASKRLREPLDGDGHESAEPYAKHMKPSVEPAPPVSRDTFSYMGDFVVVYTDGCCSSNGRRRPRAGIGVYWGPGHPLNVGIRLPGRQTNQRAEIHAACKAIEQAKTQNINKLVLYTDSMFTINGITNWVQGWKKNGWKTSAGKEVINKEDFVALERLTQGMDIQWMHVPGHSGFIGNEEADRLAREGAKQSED
row,SMILES,IC50
1,O=C1Nc2ccc(I)cc2C1(O)N1CCOCC1 (configuration not stated),400 nM
2,CN(C)CS/C(N)=N/C(O)C(Cl)(Cl)Cl (configuration not stated),inactive
3,O=C1C=CC(=O)c2c(O)cccc21,500 nM
4,O=C1NC(=O)/C(=C/c2ccc(-c3ccc(O)c(C(=O)O)c3)o2)S1,200 nM
5,Nc1cc(S(N)(=O)=O)ccc1SSc1ccc(S(N)(=O)=O)cc1N,inactive
6,CC(C)=CCC1=C(O)[C@@](O)(CC=C(C)C)C(=O)C(C(=O)CC(C)C)=C1O,2000 nM
7,CN1CC(O)C2=CC(=O)C(=O)C=C21 (configuration not stated),1600 nM
8,Nc1nc(Sc2ccc([N+](=O)[O-])c3nonc23)c2[nH]cnc2n1,inactive
9,COC([CH2][Hg][n]1cnc2c1c(=O)n(C)c(=O)n2C)CN1C(=O)c2ccccc2S1(=O)=O (configuration not stated),3300 nM
10,Cc1c(O)c(Br)c(C)c(O)c1Br (tested in a mixture with another compound),inactive
11,O=C(O)C1CCCCC1c1c2ccc(=O)c(O)c-2oc2c(O)c(O)ccc12 (configuration not stated),100 nM
12,O=[N+]([O-])c1c(Cl)cccc1-c1c[nH]cc1Cl,> 100000 nM (inactive)
13,CN(C)CN1CSC(=S)N(CN(C)C)C1,inactive
14,Cc1nn(CC(=O)Nc2sc(C)c(C)c2C(N)=O)c(C)c1[N+](=O)[O-],6000 nM
15,S=C(Nc1ccc2c(c1)Cc1ccccc1-2)Nc1ccc2c(c1)Cc1ccccc1-2,1300 nM
16,Cc1cc(Br)ccc1N1C(=O)/C(=C/c2ccco2)C(=O)NC1=S,800 nM
17,O=C1C(Cl)=C(Nc2ccc(S(=O)(=O)Nc3ccccn3)cc2)C(=O)c2ccccc21,inactive
18,CC(C)OC(=O)c1cc(O)c(O)c(O)c1,> 100000 nM (inactive)
19,O=C1C=CC2=C3c4cc(O)c(O)cc4CC3(O)COC2=C1O (configuration not stated),200 nM
20,N#Cc1c(N)nc(SCC(=O)c2ccc(O)c(O)c2)c(C#N)c1-c1ccc(O)cc1,1300 nM
21,CCOc1ccc(NC(=O)c2c(NC(=O)c3ccccc3)sc3c2CCCCC3)cc1,1100 nM

row,SMILES,IC50
1,C[C@@H]1Oc2c3c(c4c(-c5ccccc5)cc(=O)oc4c2C(=O)[C@H]1C)OC(C)(C)C=C3,3100 nM
2,O=C1CC(=O)c2ccc3c4c(ccc1c24)C(=O)CC3=O,400 nM
3,O=C(Cc1ccccc1Cl)c1ccc(O)c(O)c1O,inactive
4,O=C1C=C(NCCc2cc(Br)c(O)c(Br)c2)C(=O)c2ncccc21,6800 nM
5,CCC(=O)Nc1sc2c(c1C(=O)Nc1ccc(OC)cc1)CCCCC2,9000 nM
6,Cc1ccc(-c2c(C#N)c(SCC(=O)c3ccc(O)c(O)c3)nc3c2CCCC3)o1,1500 nM
7,O=C(O)c1cc(-c2ccc(/C=C3/Sc4ccccc4C3=O)o2)ccc1O,400 nM
8,CC(C)=CCC/C(C)=C/Cc1cc(/C=C/c2cc(O)c(C/C=C(\C)CCC=C(C)C)c(O)c2)cc(O)c1O,1300 nM
9,Cc1ccc(S(=O)(=O)N=C2C=CC(=O)C=C2)c(C)c1,3100 nM
10,O=C1c2ccccc2C(=O)c2c1cc(O)c(O)c2O,600 nM
11,O=C1c2ccccc2C(=O)c2c(O)c(O)cc(O)c21,4200 nM
12,Cc1sc(NC(=O)Cc2ccccc2)c(C(N)=O)c1C,inactive
13,O=C1C=CC(=O)C(c2cccc(Cl)c2)=C1,3900 nM
14,CC1=c2c(oc3cc(O)c(Nc4c(C)cc(O)cc4O)c(C)c23)=CC(=O)C1=Nc1c(C)cc(O)cc1O,300 nM
15,CC(=O)/C=C/C=C/c1ccc2c(c1)OC(CO)C(c1ccc(O)c(O)c1)O2 (configuration not stated),6000 nM
16,C=Cc1c(C)c2cc3[nH]c(cc4nc(cc5nc(cc1[nH]2)C(C)=C5CCC(=O)O)C(CCC(=O)O)=C4C)c(C)c3C=C,200 nM
17,C[N+](C)=c1ccc2nc3c(cc(Nc4ccccc4)c4ccccc43)oc-2c1,1600 nM
18,COc1ccc(/C=C\C(=O)c2c(-c3ccccc3)c3cc(C)ccc3[nH]c2=O)c(OC)c1,8400 nM
19,C[C@]12CC[C@H]3[C@@H](CCC4=CC(=O)CC[C@@]43C)[C@@H]1CC[C@@H]2C(=O)COS(=O)(=O)c1ccc(Br)cc1,1100 nM
20,Cc1sc(NC(=O)c2ccc3c(c2)OCO3)c(C(N)=O)c1C,3300 nM
21,Cc1sc(NC(=O)c2cccc([N+](=O)[O-])c2)c(C(N)=O)c1C,700 nM
